According to patent US20080009418A1, “Selective Inhibitors” (Alchemia LTD., priority 2004, published 2008):

Assays:
Human δ-opioid (DOP) = molecular target: T1, Human δ-opioid (DOP) (Homo sapiens, UniProt P41143); experiment: Radioligand binding, human δ-opioid (DOP) membranes, FlashPlate, [3H]-Bremazocine; details: compound at 10 μM; [3H]-Bremazocine
T1 construct: purchased Perkin Elmer Biosignal
How it was run: (§1)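 Cloned human receptor membranes were coated onto FlashPlate wells and incubated with radioligand and compound (added from a 0.5 mM DMSO daughter plate) for 1 hour at room temperature in the dark. Scintillation counting gave percent inhibition, with DMSO defining total and reference ligand defining non-specific binding.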

Human κ-Opioid (KOP) = molecular target: T2, Human κ-Opioid (KOP) (Homo sapiens, UniProt P41145); experiment: Radioligand binding, human κ-opioid (KOP) membranes, filtration, [3H]-Diprenorphine; details: compound at 10 μM; [3H]-Diprenorphine
T2 construct: purchased Perkin Elmer Biosignal
How it was run: (§2)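 Filtration binding on cloned human receptor membranes (1 Unit/well), [125I]-Substance P for NK1 and [3H]-Diprenorphine for KOP, 1 h at room temperature. Filters PEI-presoaked, washed with cold 50 mM Tris-HCl pH 7.4, counted by scintillation; percent inhibition calculated, reference ligand defining non-specific binding.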

Human Melanocortin (MC3) = molecular target: T3, Human Melanocortin (MC3) (Homo sapiens, UniProt P41968); experiment: Radioligand binding, human melanocortin MC3 membranes, FlashPlate, [125I]-NDP-αMSH; details: compound at 10 μM; [125I]-NDP-αMSH
T3 construct: purchased Perkin Elmer Biosignal
How it was run: as §1

Human Melanocortin (MC4) = molecular target: T4, Human Melanocortin (MC4) (Homo sapiens, UniProt P32245); experiment: Radioligand binding, human melanocortin MC4 membranes, FlashPlate, [125I]-NDP-αMSH; details: compound at 10 μM; [125I]-NDP-αMSH
T4 construct: purchased Perkin Elmer Biosignal
How it was run: as §1

Human melanocortin (MC5) = molecular target: T5, Human melanocortin (MC5) (Homo sapiens, UniProt P33032); experiment: Radioligand binding, human melanocortin MC5 membranes, FlashPlate, [125I]-NDP-αMSH; details: compound at 10 μM; [125I]-NDP-αMSH
T5 construct: purchased Perkin Elmer Biosignal
How it was run: as §1

[1] = molecular target: T6, Human melanin-concentrating hormone (MCH1) (Homo sapiens, UniProt Q99705); experiment: Radioligand binding, human melanin-concentrating hormone MCH1 membranes, FlashPlate, [125I]-S36057; details: compound at 10 μM; [125I]-S36057
T6 construct: purchased Perkin Elmer Biosignal
How it was run: as §1

Human μ-opioid (MOP) = molecular target: T7, Human μ-opioid (MOP) (Homo sapiens, UniProt P35372); experiment: Radioligand binding, human μ-opioid (MOP) membranes, FlashPlate, [3H]-Naloxone; details: compound at 10 μM; [3H]-Naloxone
T7 construct: purchased Perkin Elmer Biosignal
How it was run: as §1

Human neurokinin (NK1) = molecular target: T8, Human neurokinin (NK1) (Homo sapiens, UniProt P25103); experiment: Radioligand binding, human neurokinin NK1 membranes, filtration, [125I]-Substance P; details: compound at 10 μM, [125I]-Substance P
T8 construct: purchased Perkin Elmer Biosignal
How it was run: as §2

[2] = molecular target: T9, Human neuropeptide Y (NPY-Y1) (Homo sapiens, UniProt P25929); experiment: Radioligand binding, human neuropeptide Y NPY-Y1 membranes, FlashPlate, [125I]-PYY; details: compound at 10 μM; [125I]-PYY
T9 construct: purchased Perkin Elmer Biosignal
T9 sequence (P25929 1-384): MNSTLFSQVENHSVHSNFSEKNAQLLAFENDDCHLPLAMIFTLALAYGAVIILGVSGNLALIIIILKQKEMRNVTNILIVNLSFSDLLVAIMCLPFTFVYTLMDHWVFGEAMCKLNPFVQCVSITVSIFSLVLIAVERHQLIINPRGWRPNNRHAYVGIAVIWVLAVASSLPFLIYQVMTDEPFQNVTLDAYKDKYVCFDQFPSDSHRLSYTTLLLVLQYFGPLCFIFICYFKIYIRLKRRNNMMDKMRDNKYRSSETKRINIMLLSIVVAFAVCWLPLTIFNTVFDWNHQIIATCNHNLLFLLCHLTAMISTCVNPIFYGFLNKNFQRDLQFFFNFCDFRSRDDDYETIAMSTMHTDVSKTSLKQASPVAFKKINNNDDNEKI
How it was run: as §1

Human opioid (ORL1) = molecular target: T10, Human opioid (ORL1) (Homo sapiens, UniProt P41146); experiment: Radioligand binding, human opioid ORL1 membranes, FlashPlate, [125I]-Nociceptin; details: compound at 10 μM; [125I]-Nociceptin
T10 construct: purchased Perkin Elmer Biosignal
How it was run: as §1

Mouse urotensin (mUR2) = molecular target: T11, Mouse urotensin (mUR2) (Mus musculus, UniProt Q8VIH9); experiment: Radioligand binding, mouse urotensin mUR2 membranes, FlashPlate, [125I]-Urotensin II; details: compound at 10 μM; [125I]-Urotensin II
T11 construct: purchased Perkin Elmer Biosignal
T11 sequence (Q8VIH9 1-385): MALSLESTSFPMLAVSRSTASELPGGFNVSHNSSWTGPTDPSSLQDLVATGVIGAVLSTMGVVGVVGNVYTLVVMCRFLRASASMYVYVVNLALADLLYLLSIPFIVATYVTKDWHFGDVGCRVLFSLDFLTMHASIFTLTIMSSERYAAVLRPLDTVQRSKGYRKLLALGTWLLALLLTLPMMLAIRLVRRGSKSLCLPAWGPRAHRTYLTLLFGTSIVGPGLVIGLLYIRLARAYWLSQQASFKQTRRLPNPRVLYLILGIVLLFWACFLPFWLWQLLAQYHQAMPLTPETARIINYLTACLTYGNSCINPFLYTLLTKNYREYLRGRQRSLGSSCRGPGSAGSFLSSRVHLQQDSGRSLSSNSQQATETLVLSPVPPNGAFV
How it was run: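 Cloned mouse urotensin (mUR2) receptor membranes from Perkin Elmer Biosignal were immobilized in FlashPlate microplates using a proprietary coating. Each well got 19.5 μl buffer, then 0.5 μl of DMSO, reference ligand, or compound. Adding 5 μl of [125I]-Urotensin II, diluted to 5× final concentration in binding buffer, started binding. Plates were sealed with TopSeal-A and incubated 1 hour at room temperature in the dark. Wells were counted for 30 seconds each on a TopCount after a 60-second delay, and percentage inhibition was calculated.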

T7 sequence (P35372 whole entry): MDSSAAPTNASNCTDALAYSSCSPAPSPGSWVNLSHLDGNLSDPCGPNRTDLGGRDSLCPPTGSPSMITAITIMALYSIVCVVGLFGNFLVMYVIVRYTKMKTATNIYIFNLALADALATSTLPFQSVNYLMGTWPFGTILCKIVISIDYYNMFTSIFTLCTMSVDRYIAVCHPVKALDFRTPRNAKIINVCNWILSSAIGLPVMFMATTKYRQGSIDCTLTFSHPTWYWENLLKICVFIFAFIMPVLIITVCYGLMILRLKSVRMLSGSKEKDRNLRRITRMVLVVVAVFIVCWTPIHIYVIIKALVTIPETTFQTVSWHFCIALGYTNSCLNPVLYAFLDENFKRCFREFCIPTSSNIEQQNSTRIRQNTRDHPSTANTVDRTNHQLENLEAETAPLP
T2 sequence (P41145 whole entry): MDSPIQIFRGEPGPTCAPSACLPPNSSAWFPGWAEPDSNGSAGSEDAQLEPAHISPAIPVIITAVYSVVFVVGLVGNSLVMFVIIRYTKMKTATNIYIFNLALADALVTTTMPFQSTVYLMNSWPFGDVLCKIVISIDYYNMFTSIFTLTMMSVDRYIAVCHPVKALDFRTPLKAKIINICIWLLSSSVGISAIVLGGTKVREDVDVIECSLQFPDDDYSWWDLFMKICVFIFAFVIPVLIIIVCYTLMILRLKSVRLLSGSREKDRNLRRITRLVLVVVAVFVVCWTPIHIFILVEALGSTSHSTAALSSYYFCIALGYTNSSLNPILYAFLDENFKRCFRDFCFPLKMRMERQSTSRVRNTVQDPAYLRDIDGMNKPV
T10 sequence (P41146 whole entry): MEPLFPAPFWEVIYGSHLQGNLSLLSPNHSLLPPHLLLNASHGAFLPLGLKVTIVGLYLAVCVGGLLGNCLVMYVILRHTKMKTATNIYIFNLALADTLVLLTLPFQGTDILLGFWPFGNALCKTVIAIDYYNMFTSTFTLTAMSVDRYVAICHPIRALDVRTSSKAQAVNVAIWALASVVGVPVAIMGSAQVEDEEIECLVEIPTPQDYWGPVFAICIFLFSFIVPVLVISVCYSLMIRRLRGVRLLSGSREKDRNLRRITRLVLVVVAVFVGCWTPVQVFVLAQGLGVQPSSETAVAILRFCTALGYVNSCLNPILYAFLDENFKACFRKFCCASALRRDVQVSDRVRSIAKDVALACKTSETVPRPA
T3 sequence (P41968 whole entry): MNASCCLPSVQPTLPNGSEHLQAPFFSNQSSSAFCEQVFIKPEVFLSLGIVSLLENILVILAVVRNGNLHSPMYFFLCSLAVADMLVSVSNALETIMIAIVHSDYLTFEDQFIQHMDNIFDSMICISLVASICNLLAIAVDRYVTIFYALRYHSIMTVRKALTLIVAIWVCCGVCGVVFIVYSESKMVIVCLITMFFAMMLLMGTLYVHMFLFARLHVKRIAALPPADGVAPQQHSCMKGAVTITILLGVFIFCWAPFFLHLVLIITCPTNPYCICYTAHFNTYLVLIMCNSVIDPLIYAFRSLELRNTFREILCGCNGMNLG
T8 sequence (P25103 whole entry): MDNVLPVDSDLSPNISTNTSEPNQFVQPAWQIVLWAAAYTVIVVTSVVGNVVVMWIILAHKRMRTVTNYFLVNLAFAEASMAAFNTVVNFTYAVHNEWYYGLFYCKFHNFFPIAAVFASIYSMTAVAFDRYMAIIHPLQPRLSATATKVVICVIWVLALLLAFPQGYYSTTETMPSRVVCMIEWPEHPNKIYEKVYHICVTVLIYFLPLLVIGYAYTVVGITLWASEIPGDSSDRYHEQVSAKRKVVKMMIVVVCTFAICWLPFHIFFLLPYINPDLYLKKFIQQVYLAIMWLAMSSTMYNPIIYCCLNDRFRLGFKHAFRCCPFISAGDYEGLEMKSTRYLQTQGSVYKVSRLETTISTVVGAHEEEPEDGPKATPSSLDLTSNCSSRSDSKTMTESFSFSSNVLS
T6 sequence (Q99705 whole entry): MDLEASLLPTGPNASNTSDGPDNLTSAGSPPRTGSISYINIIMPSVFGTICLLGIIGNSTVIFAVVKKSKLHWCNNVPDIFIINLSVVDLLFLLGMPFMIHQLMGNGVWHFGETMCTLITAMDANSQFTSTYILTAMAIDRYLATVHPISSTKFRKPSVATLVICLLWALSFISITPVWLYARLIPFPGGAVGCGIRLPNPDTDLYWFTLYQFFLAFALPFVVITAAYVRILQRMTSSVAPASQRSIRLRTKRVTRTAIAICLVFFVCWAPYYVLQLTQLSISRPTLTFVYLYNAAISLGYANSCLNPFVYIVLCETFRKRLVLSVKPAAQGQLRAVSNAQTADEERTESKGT
T5 sequence (P33032 whole entry): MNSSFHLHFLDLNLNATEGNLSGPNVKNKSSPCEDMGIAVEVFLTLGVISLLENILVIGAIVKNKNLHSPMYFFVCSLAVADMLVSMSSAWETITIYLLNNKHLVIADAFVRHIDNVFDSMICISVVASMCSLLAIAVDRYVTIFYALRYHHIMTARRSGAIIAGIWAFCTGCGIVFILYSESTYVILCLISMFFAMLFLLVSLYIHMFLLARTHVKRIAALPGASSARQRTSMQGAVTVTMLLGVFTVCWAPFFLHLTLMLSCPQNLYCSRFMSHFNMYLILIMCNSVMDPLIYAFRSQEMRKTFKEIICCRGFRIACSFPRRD
T1 sequence (P41143 whole entry): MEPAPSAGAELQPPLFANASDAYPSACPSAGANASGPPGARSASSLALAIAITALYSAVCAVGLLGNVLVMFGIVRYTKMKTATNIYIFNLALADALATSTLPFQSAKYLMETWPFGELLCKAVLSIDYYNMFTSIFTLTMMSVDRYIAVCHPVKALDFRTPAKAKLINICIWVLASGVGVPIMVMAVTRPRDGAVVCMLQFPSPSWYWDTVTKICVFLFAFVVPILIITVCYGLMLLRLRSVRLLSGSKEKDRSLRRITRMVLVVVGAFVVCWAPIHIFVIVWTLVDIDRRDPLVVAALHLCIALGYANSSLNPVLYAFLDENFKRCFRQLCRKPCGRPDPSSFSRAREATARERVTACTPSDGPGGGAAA
T4 sequence (P32245 whole entry): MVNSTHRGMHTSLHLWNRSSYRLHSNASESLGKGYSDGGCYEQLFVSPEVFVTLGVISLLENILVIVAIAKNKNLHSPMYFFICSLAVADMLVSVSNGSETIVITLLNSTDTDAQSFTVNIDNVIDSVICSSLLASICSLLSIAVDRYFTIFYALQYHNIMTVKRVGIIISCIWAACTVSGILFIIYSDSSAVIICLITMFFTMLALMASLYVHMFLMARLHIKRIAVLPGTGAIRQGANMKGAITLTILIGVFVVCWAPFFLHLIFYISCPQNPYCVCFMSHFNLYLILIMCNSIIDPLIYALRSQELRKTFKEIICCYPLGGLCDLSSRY

COC[C@H]1OC(OCc2ccc(Cl)cc2)[C@H](NC(=O)CNC(=N)N)[C@@H](OCc2cccc(O)c2)[C@@H]1O (stereo partly shown) [compound 137]
A1 radioligand binding, percentage inhibition (Human δ-opioid (DOP)): − (“−” indicates less than 50% inhibition at 10 μM)
A2 radioligand binding, percentage inhibition (Human κ-Opioid (KOP)): − (“−” indicates less than 50% inhibition at 10 μM)
A3 radioligand binding, percentage inhibition (Human Melanocortin (MC3)): − (“−” indicates less than 50% inhibition at 10 μM)
A4 radioligand binding, percentage inhibition (Human Melanocortin (MC4)): − (“−” indicates less than 50% inhibition at 10 μM)
A5 radioligand binding, percentage inhibition (Human melanocortin (MC5)): + (“+” indicates greater than 50% inhibition at 10 μM)
A6 radioligand binding, percentage inhibition [1]: − (“−” indicates less than 50% inhibition at 10 μM)
A7 radioligand binding, percentage inhibition (Human μ-opioid (MOP)): + (“+” indicates greater than 50% inhibition at 10 μM)
A8 radioligand binding, percentage inhibition (Human neurokinin (NK1)): − (“−” indicates less than 50% inhibition at 10 μM)
A9 radioligand binding, percentage inhibition [2]: − (“−” indicates less than 50% inhibition at 10 μM)
A10 radioligand binding, percentage inhibition (Human opioid (ORL1)): − (“−” indicates less than 50% inhibition at 10 μM)
A11 radioligand binding, percentage inhibition (Mouse urotensin (mUR2)): − (“−” indicates less than 50% inhibition at 10 μM)

COCC1OC(OCCc2ccccc2)C(NC(=O)CNC(=N)N)C(OCc2ccc(-c3ccccc3)cc2)C1O (stereo not shown) [compound 548]
A1: inhibition of radioligand binding, human δ-opioid (DOP) (Human δ-opioid (DOP)): − (“−” indicates less than 50% inhibition at 10 μM)
A2: inhibition of radioligand binding, human κ-opioid (KOP) (Human κ-Opioid (KOP)): − (“−” indicates less than 50% inhibition at 10 μM)
A3: inhibition of radioligand binding, human melanocortin (MC3) (Human Melanocortin (MC3)): − (“−” indicates less than 50% inhibition at 10 μM)
A4: inhibition of radioligand binding, human melanocortin (MC4) (Human Melanocortin (MC4)): − (“−” indicates less than 50% inhibition at 10 μM)
A5: inhibition of radioligand binding, human melanocortin (MC5) (Human melanocortin (MC5)): + (“+” indicates greater than 50% inhibition at 10 μM)
A6: inhibition of radioligand binding, human melanin-concentrating hormone (MCH1) [1]: − (“−” indicates less than 50% inhibition at 10 μM)
A7: inhibition of radioligand binding, human μ-opioid (MOP) (Human μ-opioid (MOP)): − (“−” indicates less than 50% inhibition at 10 μM)
A8: inhibition of radioligand binding, human neurokinin (NK1) (Human neurokinin (NK1); 10 µM): + (“+” indicates greater than 50% inhibition at 10 μM)
A9: inhibition of radioligand binding, human neuropeptide Y (NPY-Y1) [2]: − (“−” indicates less than 50% inhibition at 10 μM)
A10: inhibition of radioligand binding, human opioid (ORL1) (Human opioid (ORL1)): − (“−” indicates less than 50% inhibition at 10 μM)
A11: inhibition of radioligand binding, mouse urotensin (mUR2) (Mouse urotensin (mUR2)): − (“−” indicates less than 50% inhibition at 10 μM)
